Assay results reported in US20060276372A1, “Carotenoids, carotenoid analogs, or carotenoid derivatives for the treatment of proliferative disorders” (priority 2005, published 2006).
Where two headings read alike, the source gives them in different places.

Key:
[1] = test system: human prostate cancer cells; conditions: cited from earlier work
[2] = test system: Connexin43 (Cx43); assay: Relative Cx43 protein levels by Western blot in C3H10T1/2 cells (Example 3); format: cell-based; conditions: Mus musculus, C3H 10T1/2, 168 h, read-out: Fold induction of Cx43 expression
Excerpt: Treatments/Compounds._TTNPB (Biomol, Plymouth Meeting, Pa.); stock 5×10^−6M in acetone, diluted 1:500 in culture media (final 10^−8 M in 0.2% acetone). Lycophyll (All-trans, 95% pure, Hawaii Biotech, Inc., Aiea, Hi.); stocks 10^−2 M and 10^−3 M in tetrahydroftiran (THF; Sigma, St. Louis, Mo.) diluted 1:1000 and stirred into culture media immediately before treatment (final 10^−5 M and 10^−6 M in 0.1% THF). Lycopene (92.7% pure, Chromadex, Inc., Santa Ana, Calif.); stocks 10^−2 M and 10^−3 M in tetrahydrofuran (Sigma, St. Louis, Mo.) diluted 1:1000 and stir into culture media immediately before treatment (final 10^−5 M and 10^−6 M in 0.1% THF). […]
SDS-PAGE Electrophoresis, Transfer and Immunodetection. […] Lysates were sonicated and protein concentrations quantified using the BCA protein determination assay (Pierce, Rockford, Ill.). […] Protein standards were utilized to confirm molecular weight of detected protein (SeeBlue, Invitrogen, Carlsbad, Calif.). […] Cx43 protein was detected according to the manufacturer's instructions using the WesternBreeze Immunodetection Kit (Invitrogen, Carlsbad, Calif.) and a rabbit primary antibody reactive against the cytoplasmic tail of Cx43 (1:2000, Sigma, St. Louis, Mo.).
Quantification of Relative Western Blot Cx43 Protein Levels. […]

[3] = test system: 10T1/2 cells; assay: Gap junctional communication, scrape-loading dye transfer assay; format: cell-based, Mouse; conditions: 7 days
Procedure: Gap junctional communication assay. Junctional permeability was assayed by the scrape-loading dye transfer assay essentially as described in El-Fouly et al., 1987, which is incorporated herein by reference. Briefly, confluent cultures of 10T1/2 cells grown in 60 mm dishes were treated with the indicated compounds for 7 days. The treated cells were washed with Ca^+2-free phosphate-buffered saline (PBS). 1.5 ml of Lucifer Yellow CH (Sigma, St. Louis, Mo.) 0.2% in PBS was then added, and linear cuts were made on the monolayer using a surgical scalpel. The cultures were incubated for 2 minutes at 37° C. then rinsed thoroughly with PBS. The cultures were then fixed with 2 ml of 5% formaldehyde in PBS. Images were digitally quantitated by intensity thresholding using the SigmaScan software program (Jandel Scientific, San Rafael, Calif.).

[4] = test system: CX43 protein; assay: CX43 protein expression in 10T1/2 cells by Western blotting (Example 1); format: cell-based, Mouse; conditions: 4 days
Procedure: Cell lines and culture conditions. Mouse embryonic fibroblast 10T1/2 cells were cultured in Eagle's basal medium with Earle's salts supplemented with 4% fetal calf serum (Atlanta Biologicals, Norcross, Ga.), 25 μg/ml gentamicin sulfate (Sigma, St. Louis, Mo.), and passaged by trypsin/EDTA (Gibco Invitrogen, Carlsbad, Calif.) and maintained at 37° C. in a 5% CO2 atmosphere. The cells were allowed to grow until a monolayer was formed. The confluent cells were treated 7 days after seeding, unless otherwise indicated. dAST was prepared in a formulation of 20% EtOH and sterile water (0.2% final EtOH ) to minimize supramolecular aggregation, and the final concentration of EtOH in culture medium was 0.2%. CTX was dissolved in THF and added to media. TTNPB was dissolved in acetone (Sigma, St. Louis, Mo.) and cultures received a final acetone concentration of 0.1%.
Analysis of CX43 protein expression. Expression of CX43 protein in 10T1/2 cells was assessed by Western blotting. 10T1/2 cell monolayers were treated with the indicated carotenoid derivatives or with retinoids (as a positive control for the modulation of CX43 expression) 7 days after seeding in 100 mm dishes (Fisher Scientific, Pittsburgh, Pa.). Fours days after the drug was added to the cells, the cells were harvested, total cellular protein was isolated and the total protein concentration thereof was determined using a commercially available Protein Assay Reagent kit (Pierce Chemical Co., Rockford, Ill.). 40 μg of total cellular protein was resolved on an SDS-PAGE gel, transferred to a nitrocellulose membrane, and analyzed by Western blotting using the NuPage Western blotting kit (Invitrogen, Carlsbad, Calif.). CX43 was detected using a rabbit polyclonal antibody (Zymed, San Francisco, Calif.) raised against a synthetic polypeptide corresponding to the C-terminal domain common to mouse, human and rat CX43. Equal protein loafing was verified by immunoblotting for GAPDH, the expression of which is unaffected by treatment with retinoids or carotenoids, using a rabbit polyclonal GAPDH antibody was also used (Zymed, San Francisco, Calif.). CX43 and GAPDH immunoreactive bands were visualized by chemiluminescence using an anti-rabbit HRP-conjugated secondary antibody (Pierce Chemical Co., Rockford, Ill.). Images were obtained by exposure to X-ray film as previously described and scanned for digital analysis on the Fluoro-S Imager (Bio-Rad, Richmond, Calif.).

[5] = test system: 10T1/2 cells; format: cell-based, Mouse; conditions: for % Inhibition of MCA-induced transformation: 4 week period; for Foci/dish (mean Type II + Type III foci, 24 dishes): 4 week period after MCA
Procedure: Inhibition of MCA-induced neoplastic transformation in 10T1/2 cells. Cells were initiated with methylcholanthrene (MCA) […] (Sigma, St. Louis, Mo.) in acetone for 24 hours. Potential inhibitors of neoplastic transformation were added 7 days after removal of carcinogen as indicated and were renewed weekly by adding fresh medium supplemented with the appropriate drug for four weeks after removal of the carcinogen. The cultures were fixed and stained as described above. A total of 24 dishes of cells were used per treatment group. Type II and III foci were identified and then quantitated as described in Bertram et al., 1990, which is incorporated herein by reference.
Statistical analysis. Transformation data was analyzed by one-tailed, two-sample t-tests that incorporated unequal variances. The scrape-loading data was analyzed by paired t-tests.

[6] = test system: CX43; assay: CX43 plaques by indirect immunofluorescence in 10T1/2 cells; format: cell-based, Mouse; conditions: 10^−6 M, 4 days
Procedure: Analysis of CX43 protein by indirect immunofluorescence. Expression and assembly of CX43 into plaques was assessed by immunofluorescence staining essentially as described in Rogers et al, 1990, which is incorporated herein by reference. Briefly, confluent cultures of 10T1/2 cells were grown on Permanox plastic 4-chamber slides (Nalge Nunc International, Naperville, Ill.) and treated for 4 days as described above. Cells were fixed with −20° C. methanol overnight, washed in buffer, blocked in 1% bovine serum albumin (Sigma, St. Louis, Mo.) in PBS, incubated with the rabbit anti-CX43 antibody, and visualized with Alexa568 conjugated anti-rabbit secondary antibody (Molecular Probes, Eugene, Oreg.). Images were acquired with a Zeiss Axioplan microscope and a Roper Scientific cooled CCD camera.

[7] = Determination of aqueous solubility/dispersibility; format: physicochemical; conditions: USP-purified water, 2 hours, supernatant by UV/Vis
Procedure: (§1) Determination of aqueous solubility/dispersibility. 30.13 mg of 3 was added to 1 mL of USP-purified water. The sample was rotated for 2 hours, then centrifuged for 5 minutes. After centrifuging, solid was visible in the bottom of the tube. A 125-μL aliquot of the solution was then diluted to 25 mL. The sample was analyzed by UV/Vis spectroscopy at 436 nm, and the absorbance was compared to a standard curve compiled from 4 standards of known concentration. The concentration of the original supernatant was calculated to be 2.85 mg/mL and the absorptivity was 36.94 AU*mL/cm*mg. Slight error may have been introduced by the small size of the original aliquot.
as §1, with “Next, 30.80” for “Determination of aqueous solubility/dispersibility. 30.13”, “9” for “3”, “UViis” for “UV/Vis”, “411” for “436”, “The concentration of the original supernatant was calculated to be 2.85 mg/mL and the absorptivity was 36.94 AU*mL/cm*mg.” left out
Determination of aqueous solubility/dipsersibility of pAST. 23.70 mg of tetrasodium diphosphate astaxanthin was added to 1 ml of USP purified water. The mixture was stirred for 2 hours, and centrifuged for 5 minutes. The solution was diluted in water and analyzed by UV/vis spectroscopy at 480 nm and absorbance was compared to a standard curve compiled from 4 standards of known concentration.

CC(C)c1ccc2c(c1)c(SC(C)(C)C)c(CC(C)(C)C(=O)O)n2Cc1ccc(Cl)cc1 [MK886]
apoptosis of prostate cancer cells ([1]; Ghosh et al.): massive apoptosis | cells in culture killed ([1]; concentration of 10 mM): more than 90%

CC(C)=CCC/C(C)=C/C=C/C(C)=C/C=C/C(C)=C/C=C/C=C(C)/C=C/C=C(C)/C=C/C=C(\C)CCC=C(C)C [lycopene, reference compound]
fold induction at 1 µM [2]: 1.55 | fold induction at 10 µM [2]: 1.51

CC1=C(/C=C/C(C)=C/C=C/C(C)=C/C=C/C=C(C)/C=C/C=C(C)/C=C/C2=C(C)C(=O)C(OP(=O)([O-])[O-])CC2(C)C)C(C)(C)CC(OP(=O)([O-])[O-])C1=O.[Na+].[Na+].[Na+].[Na+] (stereo not shown) [pAST, tetrasodium diphosphate astaxanthin]
increase of GJIC (dye transfer) over untreated control cultures ([3]; 10^−9 M): approximately 4 fold | relative amount of GJIC over concentration range ([3]; concentrations ranging from 10^−10 to 10^−6 M): remained constant over a 4-log concentration range | CX43 protein induction versus solvent-treated controls ([4]; 10^−5 M): no change | CX43 protein induction versus solvent-treated controls ([4]; 10^−6 M): about 5 fold | CX43 protein induction versus solvent-treated controls ([4]; 10^−7 M): ~2 fold | cumulative toxicity, monolayer formation ([5]; 10^−5 M for 4 weeks): failed to form complete monolayers | neoplastic transformation ([5]; 10^−5 M for 4 weeks): strongly inhibited | % Inhibition of MCA-induced transformation ([5]; 10^−6 M): 100% | Foci/dish (mean Type II + Type III foci, 24 dishes) ([5]; 10^−6 M): No foci | Foci/dish (mean Type II + Type III foci, 24 dishes) ([5]; 10^−6 M, listed as drawing 75): 0 foci/dish | % Inhibition of MCA-induced transformation ([5]; 10^−7 M): 44% | Foci/dish (mean Type II + Type III foci, 24 dishes) ([5]; 10^−7 M): substantially lowered levels of neoplastic transformation | Foci/dish (mean Type II + Type III foci, 24 dishes) ([5]; 10^−7 M, listed as drawing 75): 0.91 foci/dish | % Inhibition of MCA-induced transformation ([5]; 10^−8 M): 36% | Foci/dish (mean Type II + Type III foci, 24 dishes) ([5]; 10^−8 M): substantially lowered levels of neoplastic transformation | Foci/dish (mean Type II + Type III foci, 24 dishes) ([5]; 10^−8 M, listed as drawing 75): 1.04 foci/dish | CX43 immunoreactive plaques at regions of cell/cell apposition [6]: increased the prevalence of CX43 immunoreactive plaques | aqueous solubility/dispersibility [7]: 25.21 mg/mL
